In US10583137B2, “Triazole DAGLα inhibitors” (THE SCRIPPS RESEARCH INSTITUTE, priority 2015, dated 2020):

Legend:
DAGLα (hDAGLα-FLAG) = DAGLα (hDAGLα-FLAG) (Homo sapiens (Human), UniProt Q9Y4D2); experiment: competitive ABPP, membrane proteome of transfected HEK293T cells; assay type: biochemical; conditions: for inhibition at 0.0032 µM: 3.2 nM, read-out: DAGLα % inh. 3.2 nM; for IC50: read-out: DAGLα IC50
Procedure, shortened: (§1)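 HEK293T membrane proteome (1 mg/ml) expressing FLAG-tagged human DAGLα or DAGLβ, treated 30 min at room temperature with compound, then 30 min with HT-01 or FP-Rh probe (1 μM). Bands separated by SDS-PAGE were normalized to DMSO for IC50 by variable-slope fit.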

DAGLβ (hDAGLβ-FLAG) = DAGLβ (hDAGLβ-FLAG) (Homo sapiens (Human), UniProt Q8NCG7); experiment: as above; assay type: biochemical; conditions: for inhibition at 0.0032 µM: read-out: DAGLβ % inh. 3.2 nM; for IC50: read-out: DAGLβ IC50
Procedure, shortened: as §1

Chain of DAGLβ (hDAGLβ-FLAG) (Q8NCG7 whole entry): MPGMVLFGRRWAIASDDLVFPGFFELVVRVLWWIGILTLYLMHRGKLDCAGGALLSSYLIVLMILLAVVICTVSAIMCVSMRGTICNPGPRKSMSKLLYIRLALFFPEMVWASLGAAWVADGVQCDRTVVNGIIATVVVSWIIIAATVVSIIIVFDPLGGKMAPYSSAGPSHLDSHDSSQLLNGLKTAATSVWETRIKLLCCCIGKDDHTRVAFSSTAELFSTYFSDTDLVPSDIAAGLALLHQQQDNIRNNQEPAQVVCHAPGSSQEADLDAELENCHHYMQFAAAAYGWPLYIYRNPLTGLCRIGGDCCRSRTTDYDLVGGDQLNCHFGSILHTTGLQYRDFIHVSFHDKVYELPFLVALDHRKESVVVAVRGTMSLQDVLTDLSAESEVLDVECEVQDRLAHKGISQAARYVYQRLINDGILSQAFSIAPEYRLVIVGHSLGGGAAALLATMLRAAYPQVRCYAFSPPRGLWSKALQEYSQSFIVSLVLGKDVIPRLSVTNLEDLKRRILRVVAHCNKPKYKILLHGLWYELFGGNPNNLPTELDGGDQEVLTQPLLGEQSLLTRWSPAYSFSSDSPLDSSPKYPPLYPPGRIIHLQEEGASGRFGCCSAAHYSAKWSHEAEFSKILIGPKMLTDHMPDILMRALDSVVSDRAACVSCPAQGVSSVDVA
Chain of DAGLα (hDAGLα-FLAG) (Q9Y4D2 whole entry): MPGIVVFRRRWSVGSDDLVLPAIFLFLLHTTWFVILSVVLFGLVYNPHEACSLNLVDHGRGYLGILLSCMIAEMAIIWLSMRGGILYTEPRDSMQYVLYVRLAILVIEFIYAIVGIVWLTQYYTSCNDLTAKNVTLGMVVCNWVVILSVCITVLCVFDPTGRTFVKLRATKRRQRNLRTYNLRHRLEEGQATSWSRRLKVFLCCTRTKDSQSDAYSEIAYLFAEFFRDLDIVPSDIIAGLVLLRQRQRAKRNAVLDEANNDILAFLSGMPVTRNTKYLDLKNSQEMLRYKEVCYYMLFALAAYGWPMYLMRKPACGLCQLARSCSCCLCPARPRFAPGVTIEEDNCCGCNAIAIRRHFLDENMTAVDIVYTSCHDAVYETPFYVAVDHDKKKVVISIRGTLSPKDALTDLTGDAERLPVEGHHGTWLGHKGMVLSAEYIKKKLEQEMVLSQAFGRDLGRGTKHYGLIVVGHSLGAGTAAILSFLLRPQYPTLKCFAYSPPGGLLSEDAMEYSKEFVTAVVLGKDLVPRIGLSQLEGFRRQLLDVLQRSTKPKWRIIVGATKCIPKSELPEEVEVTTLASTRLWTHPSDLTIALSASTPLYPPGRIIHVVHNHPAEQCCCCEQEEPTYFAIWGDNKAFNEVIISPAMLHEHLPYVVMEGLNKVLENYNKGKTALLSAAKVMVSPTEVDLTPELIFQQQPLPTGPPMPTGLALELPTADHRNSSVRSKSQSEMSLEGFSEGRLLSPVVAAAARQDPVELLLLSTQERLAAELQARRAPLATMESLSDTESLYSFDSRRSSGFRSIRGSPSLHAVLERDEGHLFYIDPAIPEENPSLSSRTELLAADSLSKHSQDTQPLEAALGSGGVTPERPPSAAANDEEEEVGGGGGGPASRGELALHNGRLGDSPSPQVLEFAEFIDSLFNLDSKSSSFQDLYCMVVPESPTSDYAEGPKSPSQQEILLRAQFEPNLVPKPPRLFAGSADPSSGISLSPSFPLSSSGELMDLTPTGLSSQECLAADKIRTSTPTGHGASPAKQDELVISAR

| SMILES | inhibition at 0.0032 µM (DAGLα (hDAGLα-FLAG)) | inhibition at 0.0032 µM (DAGLβ (hDAGLβ-FLAG)) | IC50 (DAGLα (hDAGLα-FLAG)) | IC50 (DAGLβ (hDAGLβ-FLAG)) |
| --- | --- | --- | --- | --- |
| O=C(N1CCC=C[C@H]1COCc1ccccc1)n1cc(-c2ccc(OC(F)(F)F)cc2)nn1 [Compound 108, (S)-(6-((benzyloxy)methyl)-3,6-dihydropyridin-1(2H)-yl)(4-(4-(trifluoromethoxy)phenyl)-1H-1,2,3-triazol-1-yl)methanone] | 0 to 25% | 0 to 25% | – | – |
| O=C(N1CCC=C[C@H]1COCc1ccccc1)n1ncc(-c2ccc(OC(F)(F)F)cc2)n1 [Compound 109, (S)-(6-((benzyloxy)methyl)-3,6-dihydropyridin-1(2H)-yl)(4-(4-(trifluoromethoxy)phenyl)-2H-1,2,3-triazol-2-yl)methanone] | 0 to 25% | 0 to 25% | – | – |
| O=C(N1CCCCC1COc1ccccc1)n1cc(-c2ccc(OC(F)(F)F)cc2)nn1 (centres unmarked) [Compound 110, (2-(phenoxymethyl)piperidin-1-yl)(4-(4-(trifluoromethoxy)phenyl)-1H-1,2,3-triazol-1-yl)methanone] | 0 to 25% | 0 to 25% | – | – |
| O=C(N1CCCCC1COc1ccccc1)n1ncc(-c2ccc(OC(F)(F)F)cc2)n1 (centres unmarked) [Compound 111, (2-(phenoxymethyl)piperidin-1-yl)(4-(4-(trifluoromethoxy)phenyl)-2H-1,2,3-triazol-2-yl)methanone] | 0 to 25% | 0 to 25% | – | – |
| O=C(N1C[C@H](O)C=C[C@@H]1Cc1ccccc1)n1cc(-c2ccc(OC(F)(F)F)cc2)nn1 [Compound 112, ((3R,6S)-6-benzyl-3-hydroxy-3,6-dihydropyridin-1(2H)-yl)(4-(4-(trifluoromethoxy)phenyl)-1H-1,2,3-triazol-1-yl)methanone] | 0 to 25% | 0 to 25% | – | – |
| O=C(N1C[C@H](O)C=C[C@@H]1Cc1ccccc1)n1ncc(-c2ccc(OC(F)(F)F)cc2)n1 [Compound 113, ((3R,6S)-6-benzyl-3-hydroxy-3,6-dihydropyridin-1(2H)-yl)(4-(4-(trifluoromethoxy)phenyl)-2H-1,2,3-triazol-2-yl)methanone] | 0 to 25% | 0 to 25% | – | – |
| O=C(N1C[C@@H](O)C=C[C@@H]1Cc1ccccc1)n1cc(-c2ccc(OC(F)(F)F)cc2)nn1 [Compound 114, ((3S,6S)-6-benzyl-3-hydroxy-3,6-dihydropyridin-1(2H)-yl)(4-(4-(trifluoromethoxy)phenyl)-1H-1,2,3-triazol-1-yl)methanone] | 0 to 25% | 0 to 25% | – | – |
| O=C(N1C[C@@H](O)C=C[C@@H]1Cc1ccccc1)n1ncc(-c2ccc(OC(F)(F)F)cc2)n1 [Compound 115, ((3S,6S)-6-benzyl-3-hydroxy-3,6-dihydropyridin-1(2H)-yl)(4-(4-(trifluoromethoxy)phenyl)-2H-1,2,3-triazol-1-yl)methanone] | 0 to 25% | 0 to 25% | – | – |
| CO[C@@H]1CC[C@H](Cc2ccccc2)N(C(=O)n2cc(-c3ccc(OC(F)(F)F)cc3)nn2)C1 [Compound 116, ((2R,5R)-2-benzyl-5-methoxypiperidin-1-yl)(4-(4-(trifluoromethoxy)phenyl)-1H-1,2,3-triazol-1-yl)methanone] | 25 to 50% | 0 to 25% | – | – |
| CO[C@@H]1CC[C@H](Cc2ccccc2)N(C(=O)n2ncc(-c3ccc(OC(F)(F)F)cc3)n2)C1 [Compound 117, ((2R,5R)-2-benzyl-5-methoxypiperidin-1-yl)(4-(4-(trifluoromethoxy)phenyl)-2H-1,2,3-triazol-1-yl)methanone] | 0 to 25% | 0 to 25% | – | – |
| CO[C@H]1CC[C@H](Cc2ccccc2)N(C(=O)n2cc(-c3ccc(OC(F)(F)F)cc3)nn2)C1 [Compound 118, ((2R,5S)-2-benzyl-5-methoxypiperidin-1-yl)(4-(4-(trifluoromethoxy)phenyl)-1H-1,2,3-triazol-1-yl)methanone] | 25 to 50% | 0 to 25% | – | – |
| CO[C@H]1CC[C@H](Cc2ccccc2)N(C(=O)n2ncc(-c3ccc(OC(F)(F)F)cc3)n2)C1 [Compound 119] | 0 to 25% | 0 to 25% | – | – |
| O=C(N1C[C@H](OCC2CC2)CC[C@@H]1Cc1ccccc1)n1cc(-c2ccc(OC(F)(F)F)cc2)nn1 [Compound 120, ((2R,5R)-2-benzyl-5-(cyclopropylmethoxy)piperidin-1-yl)(4-(4-(trifluoromethoxy)phenyl)-1H-1,2,3-triazol-1-yl)methanone] | ≥ 75% | 25 to 50% | – | – |
| O=C(N1C[C@H](OCC2CC2)CC[C@@H]1Cc1ccccc1)n1ncc(-c2ccc(OC(F)(F)F)cc2)n1 [Compound 121] | 0 to 25% | 0 to 25% | – | – |
| CC(C)(C)CN(CCc1ccccc1)C(=O)n1cc(-c2ccc(OC(F)(F)F)cc2)nn1 [Compound 123, N-neopentyl-N-phenethyl-4-(4-(trifluoromethoxy)phenyl)-1H-1,2,3-triazole-1-carboxamide] | – | – | ≤ 400 nM | ≤ 400 nM |
| O=C(N(CCc1ccccc1)C1CCC1)n1cc(-c2ccc(OC(F)(F)F)cc2)nn1 [Compound 124, N-cyclobutyl-N-phenethyl-4-(4-(trifluoromethoxy)phenyl)-1H-1,2,3-triazole-1-carboxamide] | – | – | ≤ 400 nM | ≤ 400 nM |
| O=C(N(CCc1ccccc1)C1CC1)n1cc(-c2ccc(OC(F)(F)F)cc2)nn1 [Compound 125, N-cyclopropyl-N-phenethyl-4-(4-(trifluoromethoxy)phenyl)-1H-1,2,3-triazole-1-carboxamide] | – | – | ≤ 400 nM | ≤ 400 nM |
| CC(C)(C)CN(CCc1ccccc1)C(=O)n1ncc(-c2ccc(OC(F)(F)F)cc2)n1 [Compound 127, N-neopentyl-N-phenethyl-4-(4-(trifluoromethoxy)phenyl)-2H-1,2,3-triazole-2-carboxamide] | – | – | 2000 to 10000 nM | ≤ 400 nM |
| O=C(N(CCc1ccccc1)C1CCC1)n1ncc(-c2ccc(OC(F)(F)F)cc2)n1 [Compound 128, N-cyclobutyl-N-phenethyl-4-(4-(trifluoromethoxy)phenyl)-2H-1,2,3-triazole-2-carboxamide] | – | – | 2000 to 10000 nM | 400 to 2000 nM |
| O=C(N(CCc1ccccc1)C1CC1)n1ncc(-c2ccc(OC(F)(F)F)cc2)n1 [Compound 129, N-cyclopropyl-N-phenethyl-4-(4-(trifluoromethoxy)phenyl)-2H-1,2,3-triazole-2-carboxamide] | – | – | 2000 to 10000 nM | 400 to 2000 nM |
| O=C(N(CCc1ccccc1)CC1CC1)n1cc(-c2ccc(OC(F)(F)F)cc2)nn1 [Compound 130, N-(cyclopropylmethyl)-N-phenethyl-4-(4-(trifluoromethoxy)phenyl)-1H-1,2,3-triazole-1-carboxamide] | – | – | ≤ 400 nM | ≤ 400 nM |
| O=C(N(CCc1ccccc1)CC1CC1)n1ncc(-c2ccc(OC(F)(F)F)cc2)n1 [Compound 131, N-(cyclopropylmethyl)-N-phenethyl-4-(4-(trifluoromethoxy)phenyl)-2H-1,2,3-triazole-1-carboxamide] | – | – | 2000 to 10000 nM | 400 to 2000 nM |
| CC(C)(C)CN(CCc1ccncc1)C(=O)n1cc(-c2ccc(OC(F)(F)F)cc2)nn1 [Compound 132, N-neopentyl-N-(2-(pyridin-4-yl)ethyl)-4-(4-(trifluoromethoxy)phenyl)-1H-1,2,3-triazole-1-carboxamide] | – | – | ≤ 400 nM | ≤ 400 nM |
| CC(C)(C)CN(CCc1ccncc1)C(=O)n1ncc(-c2ccc(OC(F)(F)F)cc2)n1 [Compound 133, N-neopentyl-N-(2-(pyridin-4-yl)ethyl)-4-(4-(trifluoromethoxy)phenyl)-2H-1,2,3-triazole-1-carboxamide] | – | – | 2000 to 10000 nM | 400 to 2000 nM |
| CC(C)(C)CN(CCc1cccnc1)C(=O)n1cc(-c2ccc(OC(F)(F)F)cc2)nn1 [Compound 134, N-neopentyl-N-(2-(pyridin-3-yl)ethyl)-4-(4-(trifluoromethoxy)phenyl)-1H-1,2,3-triazole-1-carboxamide] | – | – | ≤ 400 nM | ≤ 400 nM |
| CC(C)(C)CN(CCc1cccnc1)C(=O)n1ncc(-c2ccc(OC(F)(F)F)cc2)n1 [Compound 135, N-neopentyl-N-(2-(pyridin-3-yl)ethyl)-4-(4-(trifluoromethoxy)phenyl)-2H-1,2,3-triazole-1-carboxamide] | – | – | 400 to 2000 nM | 2000 to 10000 nM |
| CCC(CC)CN(CCc1cccnc1)C(=O)n1cc(-c2ccc(OC(F)(F)F)cc2)nn1 [Compound 136, N-(2-ethylbutyl)-N-(2-(pyridin-3-yl)ethyl)-4-(4-(trifluoromethoxy)phenyl)-1H-1,2,3-triazole-1-carboxamide] | – | – | ≤ 400 nM | ≤ 400 nM |
| CCC(CC)CN(CCc1cccnc1)C(=O)n1ncc(-c2ccc(OC(F)(F)F)cc2)n1 [Compound 137] | – | – | 400 to 2000 nM | 400 to 2000 nM |
